Data taken from US20120027812A1, “INTRAOCULAR LENSES TREATED WITH ALKYLPHOSPHOCHOLINES FOR PHARMACOLOGICAL AFTERCATARACT PROPHYLAXIS” (priority 2009, published 2012).

Assays:
cat eyes (retina) = test: Long-term tolerance after intravitreal administration in cat eyes; assay type: in vivo; settings: 28 days after intravitreal administration
rat eyes (retina) = settings: seven days after a single injection into the vitreous body; cited from earlier work
[1] = Stability of the coating to washing with physiological saline solution; assay type: physicochemical; settings: repeated washing or rinsing with physiological saline solution
From the text: 1.3 Stability of the coating 10 intraocular lenses were coated with erufosin, as described in example 1.2. The lenses were subsequently each separately transferred into new test tubes and subjected to four washing steps with physiological saline solution. In a further extraction step using methanol/acetonitrile (ratio 9:1), the erufosin adhering to the lenses was removed and determined by mass spectroscopy. The amount of erufosin determined was between […] per lens.

[2] = test system: Müller glial cells and subretinal pigment epithelial cells; settings: single intravitreal administration one day after induced retinal detachment; cited from earlier work
rat retina [3] = test: Functional analysis on retina ex vivo (electroretinogram); settings: concentration of up to 25 μM in the total solution
[4] = test system: human lens epithelial cells; test: APC-coated intraocular lens laid on cultured lens epithelial cells (Example 3, FIG. 6 and 7); assay type: cell-based; settings: as coating on IOLs of hydrophobic acrylates, hydrophilic acrylates and silicones; MTT
Method: A tetrazolium reduction assay [MTT (3-[4,5-dimethylthiazol-2-yl]-2,5-diphenyltetrazolium bromide] (Sigma-Aldrich) was carried out to determine the cell count. The intraocular lenses were removed, the cells were washed with PBS and incubated with the MTT reagent for 1 hour at 37° C. Only vital cells metabolise the solution. Subsequently, the cell membrane was dissolved with DMSO (dimethylsulphoxide) and the optical thickness was measured in the ELISA reader at 550 nm. In this case, the optical thickness correlates with the number of proliferating cells.
The intraocular lenses coated with alkylphosphocholines are introduced into a cell culture volume of 500 μl, which corresponds to the volume of the human lens capsular bag in which the intraocular lenses are implanted in the human cataract operation. Moreover, the coated intraocular lenses in vitro are introduced into a cell culture with human lens epithelial cells which are already proliferating. […]
Effectiveness of an Intraocular Lens Coated with APCs in the Prophylaxis of Aftercataract Intraocular lenses are coated with APC, as explained in Example 1,m and kept sterile at room temperature. […] After 3, 5 and 7 days, the lenses are removed and the cell count of the cells left in the cell culture dishes are determined, as described in 2.1, by cell counters and by the MTT test. […]

rat retina [5] = settings: clinically administered doses (4 mg/ml); cited from earlier work

## CCCCCCCC/C=C\CCCCCCCCCCCCOP(=O)([O-])OCC[N+](C)(C)C [ErPC, erucylphosphocholine]
Cat eyes (retina)
  retinal toxicity: no sign of retinal toxicity
Rat eyes (retina)
  damage to the retinal function (light and electron microscopy, ERG): no damage to the retinal function could be detected

## CCCCCCCC/C=C\CCCCCCCCCCCCOP(=O)([O-])OCCC[N+](C)(C)C [ErPC3, erucylphosphohomocholine]
[1]
  removal of the coating from the lenses: no noticeable removal
[2]
  intraretinal proliferation of Müller glial cells and subretinal pigment epithelial cells: significant inhibition
  morphologically detectable toxic side-effects: without morphologically detectable toxic side-effects
Rat retina [3]
  changes in the electroretinogram: did not produce any changes in the electroretinogram
[4]
  cell growth of lens epithelial cells which are already proliferating: can inhibit the cell growth

## C[C@]12C=CC(=O)C=C1CC[C@H]1[C@@H]3C[C@@H](O)[C@](O)(C(=O)CO)[C@@]3(C)C[C@H](O)[C@@]12F [triamcinolone]
Rat retina [5]
  retinal toxicity on the retina ex vivo test subject: retinal toxicity

## CCCCCCCC/C=C\CCCCCCCCOP(=O)([O-])OCC[N+](C)(C)C [OIPC, oleylphosphocholine]
[4]
  cell growth of lens epithelial cells which are already proliferating: can inhibit the cell growth
